# Assay results as given in patent publication US8791148B2, “Substituted benzimidazolone derivatives, medicaments comprising them and their use” (AbbVie Deutschland GmbH & Co. KG, priority 2006, dated 2014).
# Biological target: T1, human vasopressin V1b receptor (Homo sapiens, UniProt P47901)
# T1 construct: expressed in transfected cells; host or cells: CHO-K1 (cell line hV1b-3H2_CHO), membrane preparation
# T1 sequence (P47901 1-424): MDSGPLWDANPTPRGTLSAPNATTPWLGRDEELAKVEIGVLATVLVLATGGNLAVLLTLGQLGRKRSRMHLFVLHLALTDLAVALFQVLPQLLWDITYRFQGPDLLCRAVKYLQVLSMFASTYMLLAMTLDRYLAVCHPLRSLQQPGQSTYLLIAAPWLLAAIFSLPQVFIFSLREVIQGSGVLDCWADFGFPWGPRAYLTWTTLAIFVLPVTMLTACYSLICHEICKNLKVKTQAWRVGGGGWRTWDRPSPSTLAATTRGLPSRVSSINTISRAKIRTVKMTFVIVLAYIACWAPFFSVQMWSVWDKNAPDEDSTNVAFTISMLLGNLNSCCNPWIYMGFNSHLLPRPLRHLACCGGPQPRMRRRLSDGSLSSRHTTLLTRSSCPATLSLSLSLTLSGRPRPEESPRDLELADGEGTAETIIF
# Experiment: Vasopressin V1b receptor binding assay
# Details: membranes from CHO-K1 cells with stably expressed human V1b receptors; displacement of 1.5 nM 3H-AVP; read-out: V1b receptor affinity (affinity constant Ki)
# Method: Vasopressin V1b Receptor Binding Assay:
# The test substances were dissolved in a concentration of 10^−2 M in DMSO and further diluted to 5×10^−4 M to 5×10^−9 M in DMSO. This series of DMSO predilutions was diluted 1:10 with assay buffer. The substance concentration was again diluted 1:5 in the assay mixture (2% DMSO in the mixture).
# The membrane pellet was again homogenized and centrifuged as described and then taken up in 50 mM Tris-HCl, pH 7.4, homogenized and stored in aliquots frozen in liquid nitrogen at −190° C.
# The incubation buffer was: 50 mM Tris, 10 mM MgCl2, 0.1% BSA, pH 7.4. […] The nonspecific binding was determined with 1 uM AVP (Bachem #H1780). All determinations were carried out as triplicate determinations. After incubation (60 minutes at room temperature), the free radioligand was removed by vacuum filtration (Skatron cell harvester 7000) through Wathman GF/B glass fiber filter mats, and the filters were transferred into scintillation vials. The liquid scintillation measurement took place in a Tricarb model 2000 or 2200CA instrument (Packard). Conversion of the measured cpm into dpm was carried out with the aid of a standard quench series.
# The binding parameters were calculated by nonlinear regression in SAS.
# The above assay was used to measure the affinities of the compounds of the invention for the human vasopressin V1b receptor and to determine the affinity constants (Ki).
row,Structure (SMILES),Ki [nM]
1,"COc1ccc(C(C(=O)N2CCN(c3ccncc3)CC2)n2c(=O)n(S(=O)(=O)c3ccc(OC)cc3OC)c3ccc(Cl)cc32)cc1 (centres unmarked) [Example 1, 5-Chloro-1-(2,4-dimethoxybenzenesulfonyl)-3-[1-(4-methoxyphenyl)-2-oxo-2-(4-pyridin-4-ylpiperazin-1-yl)ethyl]-1,3-dihydrobenzimidazol-2-one]",100 to 500
2,"COc1ccc(S(=O)(=O)n2c(=O)n(C(C(=O)N3CCN(c4ccncc4)CC3)c3ccccc3)c3cc(I)ccc32)cc1 (centres unmarked) [Example 4, 5-Iodo-1-(4-methoxybenzenesulfonyl)-3-[2-oxo-1-phenyl-2-(4-pyridin-4-ylpiperazin-1-yl)ethyl]-1,3-dihydrobenzimidazol-2-one]",< 100
3,"O=C(C(c1ccccc1)n1c(=O)n(S(=O)(=O)c2ccsc2)c2ccc(Cl)cc21)N1CCN(c2ccncc2)CC1 (centres unmarked) [Example 5, 5-Chloro-3-[2-oxo-1-phenyl-2-(4-pyridin-4-ylpiperazin-1-yl)ethyl]-1-(thiophene-3-sulfonyl)-1,3-dihydrobenzimidazol-2-one]",100 to 500
4,"COc1ccc(S(=O)(=O)n2c(=O)n(C(C(=O)N3CCN(c4ccncc4)CC3)c3ccccc3OC)c3cc(Cl)ccc32)cc1 (centres unmarked) [Example 6, 5-Chloro-1-(4-methoxybenzenesulfonyl)-3-[1-(2-methoxyphenyl)-2-oxo-2-(4-pyridin-4-ylpiperazin-1-yl)ethyl]-1,3-dihydrobenzimidazol-2-one]",100 to 500
5,"COc1ccc(S(=O)(=O)n2c(=O)n(C(C(=O)N3CCN(C4CCN(C)CC4)CC3)c3ccccc3OC)c3cc(Cl)ccc32)c(OC)c1 (centres unmarked) [Example 8, 5-Chloro-1-(2,4-dimethoxybenzenesulfonyl)-3-{1-(2-methoxyphenyl)-2-[4-(1-methylpiperidin-4-yl)piperazin-1-yl]-2-oxoethyl}-1,3-dihydrobenzimidazol-2-one]",500 to 10000
6,"COc1ccc(S(=O)(=O)n2c(=O)n(C(C(=O)N3CCN(C4CCN(C)CC4)CC3)c3ccccc3OC)c3cc(Cl)ccc32)cc1 (centres unmarked) [Example 9, 5-Chloro-1-(4-methoxybenzenesulfonyl)-3-{1-(2-methoxyphenyl)-2-[4-(1-methylpiperidin-4-yl)piperazin-1-yl]-2-oxoethyl}-1,3-dihydrobenzimidazol-2-one]",500 to 10000
7,"COc1ccc(S(=O)(=O)n2c(=O)n(C(C(=O)N3CCN(C4CCN(C)CC4)CC3)c3ccccc3)c3cc(C#N)ccc32)c(OC)c1 (centres unmarked) [Example 10, 1-(2,4-Dimethoxybenzenesulfonyl)-3-{2-[4-(1-methylpiperidin-4-yl)piperazin-1-yl]-2-oxo-1-phenylethyl}-2-oxo-2,3-dihydro-1H-benzimidazole-5-carbonitrile]",500 to 10000
8,"COc1ccc(S(=O)(=O)n2c(=O)n(C(C(=O)N3CCN(C4CCN(C)CC4)CC3)c3ccccc3)c3cc(C#N)ccc32)cc1 (centres unmarked) [Example 11, 1-(4-Methoxybenzenesulfonyl)-3-{2-[4-(1-methylpiperidin-4-yl)piperazin-1-yl]-2-oxo-1-phenylethyl}-2-oxo-2,3-dihydro-1H-benzimidazole-5-carbonitrile]",500 to 10000

# Other lines, results leading:
row,Ki [nM],Structure (SMILES)
1,100 to 500,"O=C(C(c1ccccc1)n1c(=O)n(S(=O)(=O)c2ccco2)c2ccc(Cl)cc21)N1CCN(c2ccncc2)CC1 (centres unmarked) [Example 2, 5-Chloro-1-(furan-2-sulfonyl)-3-[2-oxo-1-phenyl-2-(4-pyridin-4-ylpiperazin-1-yl)ethyl]-1,3-dihydrobenzimidazol-2-one]"
2,500 to 10000,"CN1CCN(C2CCN(C(=O)C(c3ccccc3)n3c(=O)n(S(=O)(=O)c4cccc5cccnc45)c4ccc(Cl)cc43)CC2)CC1 (centres unmarked) [Example 3, 5-Chloro-3-{2-[4-(4-methylpiperazin-1-yl)piperidin-1-yl]-2-oxo-1-phenyl-ethyl}-1-(quinoline-8-sulfonyl)-1,3-dihydrobenzimidazol-2-one]"
3,500 to 10000,"O=C(C(c1ccccc1)n1c(=O)n(S(=O)(=O)c2ccc(Cl)s2)c2ccc(Cl)cc21)N1CCN(c2ccncc2)CC1 (centres unmarked) [Example 7, 5-Chloro-1-(5-chlorothiophene-2-sulfonyl)-3-[2-oxo-1-phenyl-2-(4-pyridin-4-ylpiperazin-1-yl)ethyl]-1,3-dihydrobenzimidazol-2-one]"
